Data: patent publication US11033577B2, “Polymer conjugate of hexa-coordinated platinum complex” (priority 2015, dated 2021)

Tests used:
Format in all cases: in vivo, BALB/cA-nu/nu mouse
[1] = test system: Human stomach cancer 4-1ST; assay: Antitumor Test 1, human stomach cancer 4-1ST transplanted mouse; details: caudal vein
Description: (§1) Human stomach cancer 4-1ST was subcultured subcutaneously in a BALB/cA-nu/nu mouse (hereinafter, nude mouse). Human stomach cancer 4-1ST was obtained from the Central Institute for Experimental Animals.
(§2) Human stomach cancer 4-1ST was collected subcutaneously from a nude mouse and was finely cut into blocks each measuring about 3 mm on each side. The tumor blocks thus obtained were subcutaneously transplanted into the dorsal side of nude mice using a trocar. On the 15th day after transplantation, where the average tumor volume had reached about 100 to 200 mm^3, various drugs were administered through the caudal vein. The use and dose (in terms of drug) of the various administered drugs are as follows. In regard to the Example 1 compound, the compound was dissolved in a 5% glucose injectable solution, and the solution was administered once at a dose of 25 mg/kg or 12.5 mg/kg. In regard to the Example 2 compound, the compound was dissolved in a 5% glucose injectable solution, and the solution was administered once at a dose of 25 mg/kg or 12.5 mg/kg. In regard to the Example 3 compound, the compound was dissolved in a 5% glucose injectable solution, and the solution was administered once at a dose of 20 mg/kg or 10 mg/kg. In regard to the Example 4 compound, the compound was dissolved in a 5% glucose injectable solution, and the solution was administered once at a dose of 20 mg/kg or 10 mg/kg. In regard to the Example 5 compound, the compound was dissolved in a 5% glucose injectable solution, and the solution was administered once at a dose of 20 mg/kg or 10 mg/kg. As a control drug, l-OHP was administered once at a dose of 20 mg/kg, and cisplatin was administered once at a dose of 10 mg/kg. Regarding the amounts of administration of l-OHP and cisplatin and the high amounts of administration of the various Example compounds, the maximum tolerable doses (MTD doses) were employed for all of the compounds. After the administration, the major axis (L) and the minor axis (W) of the tumor were measured over time using calipers, and the tumor volume (L×W×W×0.5) was calculated. The test was performed by employing four animals per group for all of a non-administered group as well as various drug-administered groups. During the period from the initiation of administration to the 21st day after administration, the relative tumor volume (T/C (%)) of each drug-administered group based on the relative tumor volume of a non-drug-administered group as 100 was calculated by the following formula as an index for the antitumor effect. T/C(%)=Relative tumor volume of administered group/relative tumor volume of non-administered group×100 Formula: […]

[2] = test system: Human stomach cancer 4-1ST; assay: Antitumor Test 3, human stomach cancer 4-1ST transplanted mouse; details: caudal vein
Description: as §1
(§3) Human stomach cancer 4-1ST was collected subcutaneously from a nude mouse and was cut into blocks each measuring about 3 mm on each side. The tumor blocks thus obtained were transplanted subcutaneously on the dorsal side of nude mice using a trocar. On the 20th day after transplantation, where the average tumor volume had reached about 100 to 200 mm^3, various drugs were administered through the caudal vein. The use and dose (in terms of drug) of the various administered drugs are as follows. In regard to the Example 7 compound, the compound was dissolved in a 5% glucose injectable solution, and the solution was administered once at a dose of 15 mg/kg or 7.5 mg/kg. In regard to the Example 16 compound, the compound was dissolved in a 5% glucose injectable solution, and the solution was administered once at a dose of 30 mg/kg or 15 mg/kg. As a control drug, l-OHP was administered once at a dose of 18 mg/kg or 9 mg/kg, and cisplatin was administered once at a dose of 10 mg/kg. Regarding the amounts of administration of l-OHP and cisplatin and the high amounts of administration of the various Example compounds, the maximum tolerable doses (MTD doses) were employed for all of the compounds. After the administration, the major axis (L) and the minor axis (W) of the tumor were measured over time using calipers, and the tumor volume (L×W×W×0.5) was calculated. The test was performed by employing four animals per group for all of a non-administered group as well as various drug-administered groups. During the period from the initiation of administration to the 21st day after administration, the relative tumor volume (T/C (%)) of each drug-administered group based on the relative tumor volume of a non-drug-administered group as 100 was calculated by the following formula as an index for the antitumor effect. T/C(%)=Relative tumor volume of administered group/relative tumor volume of non-administered group×100 Formula: […]

[3] = Maximum tolerable dose (MTD dose) in nude mice; details: administered once, caudal vein, dose in terms of drug
Experimental: as §2
as §3, with “the 17th” for “the 20th”, “Example 11” for “Example 7”, “Example 12” for “Example 16”, “18” for “18 mg/kg or 9”, “groups.” for “groups. During the period from the initiation of administration to the 21st day after administration, the relative tumor volume (T/C (%)) of each drug-administered group based on the relative tumor volume of a non-drug-administered group as 100 was calculated by the following formula as an index for the antitumor effect. T/C(%)=Relative tumor volume of administered group/relative tumor volume of non-administered group×100 Formula:”

N.N.[Cl][Pt][Cl] [Cisplatin, cisplatin]
T/C (%) in various numbers of days after administration ([1]; 10 mg/kg once, day 0): 100%
T/C (%) in various numbers of days after administration ([1]; 10 mg/kg once, day 3): 68%
T/C (%) in various numbers of days after administration ([1]; 10 mg/kg once, day 5): 50%
T/C (%) in various numbers of days after administration ([1]; 10 mg/kg once, day 7): 33%
T/C (%) in various numbers of days after administration ([1]; 10 mg/kg once, day 10): 33%
T/C (%) in various numbers of days after administration ([1]; 10 mg/kg once, day 14): 29%
T/C (%) in various numbers of days after administration ([1]; 10 mg/kg once, day 17): 26%
T/C (%) in various numbers of days after administration ([1]; 10 mg/kg once, day 21): 22%
T/C (%) in various numbers of days after administration ([2]; 10 mg/kg once, day 0): 100%
T/C (%) in various numbers of days after administration ([2]; 10 mg/kg once, day 4): 47%
T/C (%) in various numbers of days after administration ([2]; 10 mg/kg once, day 7): 22%
T/C (%) in various numbers of days after administration ([2]; 10 mg/kg once, day 11): 17%
T/C (%) in various numbers of days after administration ([2]; 10 mg/kg once, day 14): 16%
T/C (%) in various numbers of days after administration ([2]; 10 mg/kg once, day 18): 20%
T/C (%) in various numbers of days after administration ([2]; 10 mg/kg once, day 21): 19%
maximum tolerable dose (MTD dose) ([3]; Antitumor Test 1): 10 mg/kg
maximum tolerable dose (MTD dose) ([3]; Antitumor Test 2): 10 mg/kg
maximum tolerable dose (MTD dose) ([3]; Antitumor Test 3): 10 mg/kg

O=C1[O][Pt]2([NH][C@@H]3CCCC[C@H]3[NH]2)[O]C1=O [l-OHP, oxaliplatin]
T/C (%) in various numbers of days after administration ([1]; 20 mg/kg once, day 0): 100%
T/C (%) in various numbers of days after administration ([1]; 20 mg/kg once, day 3): 72%
T/C (%) in various numbers of days after administration ([1]; 20 mg/kg once, day 5): 57%
T/C (%) in various numbers of days after administration ([1]; 20 mg/kg once, day 7): 49%
T/C (%) in various numbers of days after administration ([1]; 20 mg/kg once, day 10): 49%
T/C (%) in various numbers of days after administration ([1]; 20 mg/kg once, day 14): 45%
T/C (%) in various numbers of days after administration ([1]; 20 mg/kg once, day 17): 46%
T/C (%) in various numbers of days after administration ([1]; 20 mg/kg once, day 21): 41%
T/C (%) in various numbers of days after administration ([2]; 9 mg/kg once, day 0): 100%
T/C (%) in various numbers of days after administration ([2]; 9 mg/kg once, day 4): 81%
T/C (%) in various numbers of days after administration ([2]; 9 mg/kg once, day 7): 74%
T/C (%) in various numbers of days after administration ([2]; 9 mg/kg once, day 11): 75%
T/C (%) in various numbers of days after administration ([2]; 9 mg/kg once, day 14): 79%
T/C (%) in various numbers of days after administration ([2]; 9 mg/kg once, day 18): 77%
T/C (%) in various numbers of days after administration ([2]; 9 mg/kg once, day 21): 87%
T/C (%) in various numbers of days after administration ([2]; 18 mg/kg once, day 0): 100%
T/C (%) in various numbers of days after administration ([2]; 18 mg/kg once, day 4): 60%
T/C (%) in various numbers of days after administration ([2]; 18 mg/kg once, day 7): 37%
T/C (%) in various numbers of days after administration ([2]; 18 mg/kg once, day 11): 36%
T/C (%) in various numbers of days after administration ([2]; 18 mg/kg once, day 14): 47%
T/C (%) in various numbers of days after administration ([2]; 18 mg/kg once, day 18): 50%
T/C (%) in various numbers of days after administration ([2]; 18 mg/kg once, day 21): 52%
maximum tolerable dose (MTD dose) ([3]; Antitumor Test 1): 20 mg/kg
maximum tolerable dose (MTD dose) ([3]; Antitumor Test 2): 18 mg/kg
maximum tolerable dose (MTD dose) ([3]; Antitumor Test 3): 18 mg/kg
